SMILES strings stand for the structures. pIC50: −log10 of the molar value. Bounds are passed on as bounds.

As usually defined, the pIC50 is the negative decadic logarithm of the IC50, by convention in mol/L.

Assay [1] in a line: Antagonist activity at CRTh2 receptor in human whole blood assessed as inhibition of PGD2-induced eosinophil shape change after 5 mins by flow cytometry. (In flow cytometry, cells or beads pass a laser one at a time.)
Assay [2] is described as follows: Antagonist activity at CRTh2 receptor in human isolated eosinophil assessed as inhibition of eotaxin-induced shape change after 5 mins by flow cytometry.
The nature of assay [3]: Antagonist activity at CRTh2 receptor in human isolated eosinophil assessed as inhibition of delta12-PGD2-induced shape change after 5 mins by flow cytometry.
Assay [4] is described as follows: Antagonist activity at CRTh2 receptor in human isolated eosinophil assessed as inhibition of 11-Dehydro-TXB2-induced shape change after 5 mins by flow cytometry.
Assay [5] has as its target T1, Prostaglandin D2 receptor 2 (Homo sapiens, UniProt Q9Y5Y4).
T1 sequence (Q9Y5Y4 whole entry): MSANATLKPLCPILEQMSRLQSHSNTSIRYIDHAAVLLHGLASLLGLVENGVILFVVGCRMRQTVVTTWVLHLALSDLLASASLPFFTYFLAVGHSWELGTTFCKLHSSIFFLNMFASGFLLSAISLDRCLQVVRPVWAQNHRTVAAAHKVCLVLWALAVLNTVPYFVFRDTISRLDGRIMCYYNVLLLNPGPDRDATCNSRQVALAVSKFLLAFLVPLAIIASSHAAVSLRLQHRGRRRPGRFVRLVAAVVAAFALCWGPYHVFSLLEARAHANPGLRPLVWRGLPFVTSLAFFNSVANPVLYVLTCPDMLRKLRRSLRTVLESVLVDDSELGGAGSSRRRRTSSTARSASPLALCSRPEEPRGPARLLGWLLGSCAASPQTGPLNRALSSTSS
The assay is described as follows: Antagonist activity at CRTh2 receptor in human isolated eosinophil assessed as inhibition of DK-PGD2-induced shape change after 5 mins by flow cytometry.

Assay [6] is described as follows: Antagonist activity at CRTh2 receptor in human isolated eosinophil assessed as inhibition of DK-PGD2-induced shape change after 5 mins by flow cytometry.

`Cc1c(CC(=O)O)c2cccnc2n1Cc1ccc(S(C)(=O)=O)cc1`: the negative logarithm of the IC50 (pIC50) in assay [1] is 6.99; in assay [2], under 5.00; in assay [3] it was 8.40; in assay [4], 8.40.
Consider `Cc1c(CC(=O)O)c2cccnc2n1Cc1ccc([N+](=O)[O-])cc1`, for which the pIC50 in assay [5] was 7.62.
For the compound `Cc1c(CC(=O)O)c2cccnc2n1Cc1ccc([S+](C)[O-])cc1` (configuration not stated), the pIC50 in assay [6] was 7.29.
Regarding `Cc1c(CC(=O)O)c2cccnc2n1Cc1ccc(Cl)cc1`, the pIC50 in assay [6] was 7.64.
